Laboratory results: patent US10597388B2, “Pyridazinone herbicides” (FMC CORPORATION, priority 2014, dated 2020)

Assays:
Experiment in all cases: Test C greenhouse herbicide test, pre- and postemergence
Format in all cases: in vivo
[1] = test system: blackgrass (Alopecurus myosuroides)
In short: (§1)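 Two application timings: at sowing into a soil/sand blend, and on 2–18 cm seedlings in peat-vermiculite potting mix. A non-phytotoxic, surfactant-containing solvent carried the compounds. Plants were compared with controls and rated visually on 0–100 after 13–15 d.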

[2] = test system: galium (catchweed bedstraw, Galium aparine)
In short: as §1

[3] = test system: wheat (winter wheat, Triticum aestivum)
In short: as §1

[4] = test system: velvetleaf (Abutilon theophrasti)
In short: as §1

corn (Zea mays) = test system: corn (Zea mays)
In short: as §1

[5] = test system: ryegrass, Italian (Italian ryegrass, Lolium multiflorum)
In short: as §1

[6] = test system: foxtail, giant (giant foxtail, Setaria faberii)
In short: as §1

[7] = test system: oilseed rape (Brassica napus)
In short: as §1

[8] = test system: waterhemp (common waterhemp, Amaranthus rudis)
In short: as §1

[9] = test system: lambsquarters (Chenopodium album)
In short: as §1

[10] = test system: ragweed (common ragweed, Ambrosia elatior)
In short: as §1

[11] = test system: pigweed (Amaranthus retroflexus)
In short: as §1

[12] = test system: morningglory (Ipomoea coccinea)
In short: as §1

[13] = test system: crabgrass, large (large crabgrass, Digitaria sanguinalis)
In short: as §1

[14] = test system: barnyardgrass (Echinochloa crus-galli)
In short: as §1

[15] = Postemergence, 31 g ai/ha, 0 to 100 scale (0 no effect, 100 complete control)
[16] = Postemergence, 125 g ai/ha, scale 0 to 100, 0 is no effect, 100 is complete control
[17] = Postemergence, 250 g ai/ha, scale 0 to 100, 0 no effect, 100 complete control, 13 to 15 d
[18] = Preemergence, 31 g ai/ha, scale 0 to 100, 0 is no effect, 100 is complete control
[19] = Preemergence, 62 g ai/ha, scale 0 to 100, 0 is no effect, 100 is complete control
[20] = Preemergence, 125 g ai/ha, scale 0 to 100, 0 is no effect, 100 is complete control
[21] = Preemergence, 250 g ai/ha, scale 0 to 100, 0 no effect, 100 complete control
[22] = postemergence, 62 g ai/ha, scale 0 to 100, 0 no effect, 100 complete control

SMILES: CC(=O)Oc1c(C)nn(C)c(=O)c1-c1c(C)cc(C)c2ccccc12 [Compound 99]
- Blackgrass plant response rating [1, 15]: 20
- Plant response rating, Blackgrass [1, 16]: 50
- Plant response rating, Blackgrass [1, 17]: 65
- Plant response rating, Blackgrass [1, 18]: 50
- Plant response rating, Blackgrass [1, 19]: 70
- Plant response rating, Blackgrass [1, 20]: 90
- Blackgrass plant response rating [1, 21]: 90
- Blackgrass plant response rating [1, 22]: 30
- Plant response rating, Galium [2, 16]: 98
- Plant response rating, Galium [2, 17]: 98
- Plant response rating, Galium [2, 20]: 98
- Galium plant response rating [2, 21]: 98
- Galium plant response rating [2, 22]: 95
- Plant response rating, Wheat [3, 16]: 10
- Plant response rating, Wheat [3, 17]: 10
- Plant response rating, Wheat [3, 18]: 0
- Plant response rating, Wheat [3, 19]: 0
- Plant response rating, Wheat [3, 20]: 30
- Wheat plant response rating [3, 21]: 65
- Wheat plant response rating [3, 22]: 0
- Plant response rating, Velvetleaf [4, 16]: 98
- Plant response rating, Velvetleaf [4, 17]: 100
- Plant response rating, Velvetleaf [4, 18]: 60
- Plant response rating, Velvetleaf [4, 19]: 75
- Plant response rating, Velvetleaf [4, 20]: 90
- Velvetleaf plant response rating [4, 21]: 95
- Velvetleaf plant response rating [4, 22]: 85
- Corn plant response rating (corn (Zea mays); [15]): 0
- Plant response rating, Corn (corn (Zea mays); [16]): 10
- Plant response rating, Corn (corn (Zea mays); [17]): 10
- Plant response rating, Corn (corn (Zea mays); [18]): 5
- Plant response rating, Corn (corn (Zea mays); [19]): 20
- Plant response rating, Corn (corn (Zea mays); [20]): 10
- Corn plant response rating (corn (Zea mays); [21]): 30
- Corn plant response rating (corn (Zea mays); [22]): 5
- Plant response rating, Ryegrass, Italian [5, 16]: 95
- Plant response rating, Ryegrass, Italian [5, 17]: 95
- Plant response rating, Ryegrass, Italian [5, 18]: 90
- Plant response rating, Ryegrass, Italian [5, 19]: 90
- Plant response rating, Ryegrass, Italian [5, 20]: 100
- Ryegrass, Italian plant response rating [5, 21]: 100
- Ryegrass, Italian plant response rating [5, 22]: 90
- Plant response rating, Foxtail, Giant [6, 16]: 30
- Plant response rating, Foxtail, Giant [6, 17]: 50
- Plant response rating, Foxtail, Giant [6, 18]: 40
- Plant response rating, Foxtail, Giant [6, 19]: 35
- Plant response rating, Foxtail, Giant [6, 20]: 65
- Foxtail, Giant plant response rating [6, 21]: 90
- Foxtail, Giant plant response rating [6, 22]: 15
- Plant response rating, Oilseed Rape [7, 16]: 60
- Plant response rating, Oilseed Rape [7, 17]: 55
- Plant response rating, Oilseed Rape [7, 18]: 0
- Plant response rating, Oilseed Rape [7, 19]: 40
- Plant response rating, Oilseed Rape [7, 20]: 90
- Oilseed Rape plant response rating [7, 21]: 98
- Oilseed Rape plant response rating [7, 22]: 5
- Plant response rating, Waterhemp [8, 16]: 95
- Plant response rating, Waterhemp [8, 17]: 98
- Plant response rating, Waterhemp [8, 18]: 85
- Plant response rating, Waterhemp [8, 19]: 100
- Plant response rating, Waterhemp [8, 20]: 98
- Waterhemp plant response rating [8, 21]: 100
- Waterhemp plant response rating [8, 22]: 75
- Plant response rating, Lambsquarters [9, 16]: 85
- Plant response rating, Lambsquarters [9, 17]: 98
- Plant response rating, Lambsquarters [9, 18]: 25
- Plant response rating, Lambsquarters [9, 19]: 80
- Plant response rating, Lambsquarters [9, 20]: 100
- Lambsquarters plant response rating [9, 21]: 95
- Lambsquarters plant response rating [9, 22]: 75
- Plant response rating, Ragweed [10, 16]: 95
- Plant response rating, Ragweed [10, 17]: 100
- Plant response rating, Ragweed [10, 18]: 70
- Plant response rating, Ragweed [10, 19]: 90
- Plant response rating, Ragweed [10, 20]: 95
- Ragweed plant response rating [10, 21]: 95
- Ragweed plant response rating [10, 22]: 90
- Plant response rating, Pigweed [11, 16]: 98
- Plant response rating, Pigweed [11, 17]: 95
- Plant response rating, Pigweed [11, 18]: 95
- Plant response rating, Pigweed [11, 19]: 100
- Plant response rating, Pigweed [11, 20]: 100
- Pigweed plant response rating [11, 21]: 100
- Pigweed plant response rating [11, 22]: 75
- Plant response rating, Morningglory [12, 16]: 100
- Plant response rating, Morningglory [12, 17]: 100
- Plant response rating, Morningglory [12, 18]: 80
- Plant response rating, Morningglory [12, 19]: 85
- Plant response rating, Morningglory [12, 20]: 90
- Morningglory plant response rating [12, 21]: 95
- Morningglory plant response rating [12, 22]: 95
- Plant response rating, Crabgrass, Large [13, 16]: 30
- Plant response rating, Crabgrass, Large [13, 17]: 50
- Plant response rating, Crabgrass, Large [13, 18]: 30
- Plant response rating, Crabgrass, Large [13, 19]: 35
- Plant response rating, Crabgrass, Large [13, 20]: 60
- Crabgrass, Large plant response rating [13, 21]: 80
- Crabgrass, Large plant response rating [13, 22]: 20
- Barnyardgrass plant response rating [14, 15]: 25
- Plant response rating, Barnyardgrass [14, 16]: 35
- Plant response rating, Barnyardgrass [14, 17]: 35
- Plant response rating, Barnyardgrass [14, 18]: 5
- Plant response rating, Barnyardgrass [14, 19]: 15
- Plant response rating, Barnyardgrass [14, 20]: 55
- Barnyardgrass plant response rating [14, 21]: 85
- Barnyardgrass plant response rating [14, 22]: 25
